Target: T1, hACMSD (ACMSD1) (Homo sapiens, UniProt Q8TDX5)
T1 construct: made in house; host or cells: Pichia pastoris
Assay: Determination of ACMSD1 inhibition, spectrophotometrical in vitro assay (conversion of 3OH-anthranilic acid into ACMS)
Format: biochemical
Details: HAA concentration of 10 μM; recombinant ACMSD1 from Pichia pastoris; 25° C.; absorbance at 360 nm
Protocol: The activity of compounds as inhibitors of ACMSD1 is determined in a spectrophotometrical in vitro assay. The pre-assay mixture is incubated and a compound of Formula (I) or (II), or a pharmaceutically acceptable salt thereof, and ACMSD1 solution is then added. The effect of ACMS concentration on the enzyme activity is investigated by varying 3-hydroxyanthranilic acid (30H-HA) concentration in the pre-assay mixture. Kinetic parameters are calculated from the initial velocity data using a Lineweaver-Burk plot.
The pre-assay mixture consisting of 3-hydroxyanthranilic acid (30H-HA), 3-hydroxyanthranilic acid, 3,4-diOxygenase (HAO), and a dialyzed crude extract of E. coli BL21 (DE3) cells expressing the recombinant enzyme, was incubated at 25° C. with monitoring of the increase in absorbance at 360 nm due to the formation of ACMS from 30H-HA. After the reaction was completed within ˜2 mins, an aliquot of ACMSD1 solution (prepared and purified from Pichia pastoris overexpressing the recombinant enzyme) was added, and the decrease in absorbance at 360 nm was followed at 15 second intervals. The effect of ACMS concentration on the enzyme activity was investigated by varying 30H-HA concentration from 2 to 20 μM. Kinetic parameters were calculated from the initial velocity data by using the Lineweaver-Burk plot.
The rate of the decrease in absorbance caused by ACMSD1 was calculated by subtracting that of the control reaction mixture without ACMSD from that described above. One unit of ACMSD activity was indicated as the amount of enzyme that converts 1 mmol of ACMS per minute at 25° C.
The enzymatic activity was determined at a HAA concentration of 10 μM in the presence of the compounds in Table 1 below. […] In Table 1, A is <0.1 μM; B is 0.1 to 1 μM; C is 1 to 10 μM; and D is >10 μM.

T1 sequence (Q8TDX5 whole entry): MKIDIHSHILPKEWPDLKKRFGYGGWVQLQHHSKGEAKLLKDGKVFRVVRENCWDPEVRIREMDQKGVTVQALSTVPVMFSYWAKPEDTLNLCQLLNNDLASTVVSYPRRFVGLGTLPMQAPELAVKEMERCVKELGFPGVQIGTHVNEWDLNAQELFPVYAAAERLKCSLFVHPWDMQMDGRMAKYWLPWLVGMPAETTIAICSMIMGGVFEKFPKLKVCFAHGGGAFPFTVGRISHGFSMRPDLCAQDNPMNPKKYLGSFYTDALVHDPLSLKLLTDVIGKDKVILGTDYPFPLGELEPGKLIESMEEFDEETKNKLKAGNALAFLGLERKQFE

Row | Structure (SMILES) | IC50
1 | N#Cc1c(-c2cccs2)nc(SCc2cc(F)c(O)c(F)c2)[nH]c1=O [I-39, 2-(3,5-Difluoro-4-hydroxy-benzylsulfanyl)-6-oxo-4-thiophen-2-yl-1,6-dihydro-pyrimidine-5-carbonitrile] | 1000 to 10000 nM
2 | CCOC(=O)Cc1cccc(CSc2nc(-c3cccs3)c(C#N)c(=O)[nH]2)c1 [I-1, [3-(5-Cyano-6-oxo-4-thiophen-2-yl-1,6-dihydro-pyrimidin-2-ylsulfanylmethyl)-phenyl]-acetic acid ethyl ester] | 1000 to 10000 nM
3 | N#Cc1c(-c2cccs2)nc(SCc2cccc(S(N)(=O)=O)c2)[nH]c1=O [I-18, 3-(5-Cyano-6-oxo-4-thiophen-2-yl-1,6-dihydro-pyrimidin-2-ylsulfanylmethyl)-benzenesulfonamide] | 100 to 1000 nM

Reference: patent US12186317B2, “Inhibitors of alpha-amino-beta-carboxymuconic acid semialdehyde decarboxylase” (TES Pharma S.r.l., priority 2018, dated 2025)
